Biological target: T1, HQDS.b. (Streptomyces bingchenggensis, UniProt D7BW96)
T1 construct: gene SBI_08688; His8-TEV tagged (pET28b), E. coli BL21(DE3), Ni-NTA purified
T1 sequence (D7BW96 1-278): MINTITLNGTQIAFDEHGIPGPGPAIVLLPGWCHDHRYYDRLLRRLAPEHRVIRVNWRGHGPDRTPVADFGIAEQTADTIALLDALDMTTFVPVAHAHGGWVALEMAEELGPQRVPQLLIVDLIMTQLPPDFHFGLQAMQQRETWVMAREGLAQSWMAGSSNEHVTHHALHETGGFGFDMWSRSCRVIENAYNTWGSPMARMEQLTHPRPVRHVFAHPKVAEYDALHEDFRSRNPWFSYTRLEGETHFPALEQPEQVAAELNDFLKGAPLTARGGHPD
Assay: spectrophotometric PQS consumption at […] nm
Format: biochemical
Conditions: 50 mM Tris, 2 mM EDTA, 10% PEG 1500, pH 8.0, 30 °C

## CCCCCCCc1[nH]c2ccccc2c(=O)c1O [PQS, 2-heptyl-3-hydroxy-4(1H)-quinolone]
  KM: HQDS.b., which exhibits the lowest KM towards PQS among the enzymes tested (Table S1)
